# Data published in US20220017541A1, “INHIBITORS OF ARGINASE” (Black Belt Tx Ltd, priority 2018, published 2022).
# How the values were obtained:
# recombinant human ARG1 = biological target: T1, recombinant human ARG1 (Homo sapiens, UniProt P05089); assay: Arginase enzymatic assay in vitro, recombinant human ARG1 (colorimetric urea detection); type: biochemical; conditions: recombinant human arginase 1; read-out: IC50 Inh rhARG1
# T1 construct: purchased R&D System 5868-AR-010
# T1 sequence (P05089 1-322): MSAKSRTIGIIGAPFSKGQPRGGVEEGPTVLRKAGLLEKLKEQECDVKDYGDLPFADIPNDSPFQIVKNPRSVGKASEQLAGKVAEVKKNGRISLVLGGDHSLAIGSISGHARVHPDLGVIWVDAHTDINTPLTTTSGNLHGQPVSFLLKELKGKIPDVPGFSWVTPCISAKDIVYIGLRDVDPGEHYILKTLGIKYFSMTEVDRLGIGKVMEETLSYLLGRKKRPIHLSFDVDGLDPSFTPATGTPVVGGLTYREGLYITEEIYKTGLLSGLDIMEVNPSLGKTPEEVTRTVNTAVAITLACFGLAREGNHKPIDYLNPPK
# From the text: (§1) Arginase catalyzes the hydrolysis of L-arginine into L-ornithine and urea. Urea amount produced by this reaction can be detected using a colorimetric assay and used as an indirect measurement of arginase activity. An adapted protocol from (Baggio, R., et al., J Pharmacol Exp Ther, 1999. 290(3): p. 1409-16) was used for the testing the ability of exemplary compounds of the invention to inhibit arginase enzymes from a variety of sources including recombinant human ARG1 and 2, lysates of human red blood cells (RBC) and intact murine macrophages, as described below.
# (§2) Compounds of the invention were prepared from powder as 10 mM stock solutions in DMSO and stored in presence of N2 neutral atmosphere at −80° C. For IC50 determination and just before the assay, exemplary compounds were successively diluted to get the following concentrations: 210, 70, 21, 7, 2.1, 0.7, 0.21, 0.07, 0.021, 0.007, 0.0021 and 0.0007 μM (i.e., final concentrations in the wells of 30, 10, 3, 1, 0.3, 0.1, 0.03, 0.01, 0.003, 0.001, 0.0003, 0.0001 μM).
# (§3) Assays were run in clear flat bottom 96-well plates (Nunclon, Cat. No. #167008) adding in each well the following solutions in this order: (1) 10 μl of Tris-HCl solution supplemented with 0.1% bovine serum albumin (BSA) containing 1.563 μg/ml recombinant human ARG1 (R&D System, Cat. No. #5868-AR-010), (2) 30 μl of Tris-HCl buffer containing 10 mM MnCl2 and (3) 10 μL of a pre-dilution of each test article or DMSO (vehicle). Compounds were allowed to interact with the enzyme-cofactor complex pre-incubating the plate at 37° C. for 30 min. To start the reaction, 20 μl of 50 mM L-arginine (Sigma Aldrich Cat. #A5006-100G) were added to each well in exception of the blank reaction (see below). All reactions were allowed to happen for 1 h at 37° C. To detect the urea production, reactions were stopped by adding 200 μl of a mixture of reagent A (4 mM o-phthalaldehyde in 50 mM Boric Acid, 1 M Sulfuric Acid, 0.03% Brij-35 (w/v)) and reagent B (4 mM N-(1-naphthyl)ethylenediamine in 50 mM Boric Acid, 1 M Sulfuric Acid, 0.03% Brij-35 (w/v)) in equal proportion. Color product was developed for 1 h at room temperature (RT) protected from light and then absorbance at 520 nm was measured using a Multifunction Microplate Reader (Synergy 4, Bioteck). Blank reactions were carried out by adding the L-arginine substrate only after the addition of mixture A-B. All reactions were carried out in duplicates.
# (§4) The inhibition of urea production was calculated subtracting the absorbance from the blank reaction (zero enzymatic urea production) to the absorbance from all reactions and it was expressed as the percentage of the absorbance from the reaction containing the test article with respect to the absorbance from vehicle reaction (maximum of urea production).
# recombinant human ARG2 = biological target: T2, recombinant human ARG2 (Homo sapiens, UniProt P78540); assay: Arginase enzymatic assay in vitro, recombinant human ARG2 (colorimetric urea detection); type: biochemical; conditions: recombinant human arginase 2; read-out: IC50 Inh rhARG2
# T2 construct: purchased BPS Bioscience 71659
# T2 sequence (P78540 23-354): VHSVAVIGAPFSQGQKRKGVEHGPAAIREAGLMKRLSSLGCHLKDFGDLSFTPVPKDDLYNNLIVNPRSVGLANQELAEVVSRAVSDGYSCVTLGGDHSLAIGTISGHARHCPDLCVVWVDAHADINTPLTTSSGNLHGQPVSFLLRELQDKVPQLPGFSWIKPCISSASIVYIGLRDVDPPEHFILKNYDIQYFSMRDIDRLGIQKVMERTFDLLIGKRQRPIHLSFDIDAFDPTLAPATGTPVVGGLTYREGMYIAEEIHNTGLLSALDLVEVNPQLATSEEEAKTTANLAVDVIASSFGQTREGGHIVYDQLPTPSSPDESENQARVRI
# From the text: as §1, §2, §3, §4
# For testing inhibitory activity over recombinant human arginase II, 10 μl of Tris-HCl solution supplemented with 0.1% BSA containing 1.5 μg/ml recombinant human ARG2 (BPS Bioscience, Cat. No. #71659) was used instead of ARG1.
# [1] = biological target: T3, native ARG1 enzyme in lysates of RBC (Homo sapiens, UniProt P05089); assay: Arginase enzymatic assay in RBC lysates from healthy donors; type: biochemical; conditions: human red blood cell lysates; read-out: IC50 Inh RBC
# T3 construct: native ARG1 enzyme in lysates of RBC; from tissue; host or cells: human red blood cell lysates from healthy donors
# T3 sequence (P05089 1-322): T1 sequence (P05089 1-322)
# From the text: as §1, §2, §3, §4
# For testing inhibitory activity over RBC lysates from healthy donors, 10 μl of Tris-HCl solution supplemented with 0.1% BSA containing 160 μg RBC lysates per well was used instead.
# [2] = biological target: T4, arginase activity in intact BMM-M2 cells (Mus musculus, UniProt Q61176); assay: Cell-based arginase assay: urea production by cultured BMM-M2 cells; conditions: 10 μM test compound, 24 h; for inhibition at 10 µM: read-out: Inh. urea production @10 μM (%)
# T4 construct: endogenous in cells; host or cells: bone-marrow derived macrophages from male C57BL/6 mice, polarised to M2 with IL-4
# T4 sequence (Q61176 1-323): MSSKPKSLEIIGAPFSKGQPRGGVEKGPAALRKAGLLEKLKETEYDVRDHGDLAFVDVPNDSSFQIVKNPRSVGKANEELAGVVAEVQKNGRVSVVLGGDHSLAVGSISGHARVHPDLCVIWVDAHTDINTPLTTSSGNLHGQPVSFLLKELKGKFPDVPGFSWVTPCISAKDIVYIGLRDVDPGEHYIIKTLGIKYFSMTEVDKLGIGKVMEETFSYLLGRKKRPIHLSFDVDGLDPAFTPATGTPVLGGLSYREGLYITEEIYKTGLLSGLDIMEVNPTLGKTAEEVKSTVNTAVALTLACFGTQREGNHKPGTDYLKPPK
# Description: Murine bone-marrow derived macrophages (BMM) represent a convenient in vitro model that enables differentiation of these cells towards M1 or M2 macrophages. Briefly, male C57BL/6 mice 7-8 weeks old were euthanized by carbon dioxide asphyxiation. Femur and tibiae bones were removed under aseptic conditions and collected in a plate containing sterile ice-cold PBS 1×. After sterilization of bones in 70% ethanol during 1 min, bones were placed into a clean Petri dish containing fresh sterile ice-cold PBS 1×. The ends of each bone were cut and the marrow cavity was flushed using forceps and syringes filled with pre-warmed complete α-MEM growing medium (α-MEM without red phenol (Life Technologies, Cat. No. #41061-029) supplemented with 10% FBS, penicillin and streptomycin). Bone marrow (BM) cells were harvested in a 15 ml clean tube and centrifuged at 400 g for 8 min at RT. Supernatant was discarded and BM pellet was re-suspended in 5 ml Ammonium-Chloride-Potassium (ACK) buffer for 5 minutes at RT to lysis RBC. BM cell suspension was centrifuged at 400 g for 8 min at RT. Supernatant was discarded and BM cell pellet was re-suspended in complete α-MEM growing medium and passed through a 70 μm cell restrainer to eliminate solid contaminates and cellular aggregates. BM cells were seeded in 8 ml of complete α-MEM growing medium supplemented with 100 ng/ml recombinant mouse M-CSF (R&D Systems, Cat. No. #416-ML-050) in 100-mm dishes. BM cells were cultured overnight to get rid of contaminating stromal cells in a humidified incubator with 5% CO2 at 37° C. At the following day, non-adherent cells were collected in a clean 15-ml tube and centrifuged at 400 g for 8 min at RT. Cell pellet was re-suspended in complete α-MEM growing medium and counted using a hemocytometer Neubauer's chamber. Hematopoietic precursor cells were differentiated into BMM in presence of complete α-MEM growing medium supplemented 50 ng/ml M-CSF for 3 days. Finally to polarize BMM towards M2 phenotype, cells were incubated in presence 20 ng/ml of recombinant mouse IL-4 (R&D Systems, Cat. No. #404-ML-010) added to fresh complete α-MEM growing medium supplemented 50 ng/ml M-CSF for 24 h.
# At the day of the experiment, BMM-M2 were treated for 24 h with vehicle (DMSO) or compounds of the invention at 1 and 10 μM prepared in fresh complete α-MEM growing medium supplemented 50 ng/ml M-CSF, 20 ng/ml IL-4 and 10 mM L-arginine (Cat. No. #A5006, Sigma Aldrich). At the next day, 70 μl aliquots of each treated culture media (supernatants) were transferred into a clear 96-well plate. Measurements of urea produced by BMM-M2 were performed using the adapted protocol detailed in Example B1. Wells without BMM-M2 containing only treatment media (vehicle) were used to determine the zero cell-derived urea production (blank). All treatments were carried out in triplicates.
# The inhibition of urea production was calculated subtracting the absorbance from the blank to the absorbance from all treatments and it was expressed as the percentage of the absorbance from the reaction containing the test article treatment with respect to the absorbance from vehicle treatment (maximum of urea production).
SMILES,IC50 (recombinant human ARG1),IC50 (recombinant human ARG2),IC50 [1],inhibition at 10 µM [2],Inh. urea production @10 μM (%) [2]
"NC(CCCCB(O)O)(C(=O)O)C1CCN(C2CCCc3cccnc32)CC1 (single isomer, unassigned) [Compound 32, 2-amino-6-borono-2-(1-(5,6,7,8-tetrahydroquinolin-8-yl)piperidin-4-yl)hexanoic acid]",< 500 nM,< 500 nM,< 500 nM,,
"CC(c1c(F)cccc1F)N1CCC(C(N)(CCCCB(O)O)C(=O)O)CC1 (single isomer, unassigned) [Compound 92, 2-amino-6-borono-2-(1-(1-(2,6-difluorophenyl)ethyl)piperidin-4-yl)hexanoic acid]",500 to 5000 nM,500 to 5000 nM,,< 15%,
"CC(c1ccc(F)c(Cl)c1)N1CCC(C(N)(CCCCB(O)O)C(=O)O)CC1 (single isomer, unassigned) [Compound 89, 2-amino-6-borono-2-(1-(1-(3-chloro-4-fluorophenyl)ethyl)piperidin-4-yl)hexanoic acid]",< 500 nM,500 to 5000 nM,,,++ (25% < % inhibition < 15% at 10 μM test compound)
"NC(CCCCB(O)O)(C(=O)O)C1CCN(C2CCc3cc(F)c(F)cc32)CC1 (single isomer, unassigned) [Compound 19, 2-amino-6-borono-2-[1-(5,6-difluoroindan-1-yl)-4-piperidyl]hexanoic acid]",< 500 nM,< 500 nM,,,++ (25% < % inhibition < 15% at 10 μM test compound)

# Second part, led by results:
IC50 (recombinant human ARG1),IC50 (recombinant human ARG2),IC50 [1],inhibition at 10 µM [2],SMILES,Inh. urea production @10 μM (%) [2]
< 500 nM,< 500 nM,< 500 nM,,"NC(CCCCB(O)O)(C(=O)O)C1CCN(C2CCCc3cc(Cl)ccc32)CC1 (stereo not drawn) [Compound 16, 2-amino-6-borono-2-(1-(6-chloro-1,2,3,4-tetrahydronaphthalen-1-yl)piperidin-4-yl)hexanoic acid]",
500 to 5000 nM,500 to 5000 nM,< 500 nM,,"NC(=O)C(N)(CCCCB(O)O)C1CCN(C2CCc3cc(Cl)ccc32)CC1 (stereo not drawn) [Compound 81, (5,6-diamino-5-(1-(5-chloro-2,3-dihydro-1H-inden-1-yl)piperidin-4-yl)-6-oxohexyl)boronic acid]",
500 to 5000 nM,500 to 5000 nM,,< 15%,"NC(CCCCB(O)O)(C(=O)O)C1CCN(C2CCCc3cc(Cl)ccc32)C1 (stereo not drawn) [Compound 48, 2-amino-6-borono-2-[1-(6-chlorotetralin-1-yl)pyrrolidin-3-yl]hexanoic acid]",
